Laboratory results published in ChEMBL document CHEMBL2440076, “New triarylpyrazoles as broad-spectrum anticancer agents: design, synthesis, and biological evaluation” (Eur J Med Chem, 2013).

Assays:
BT-549 = test: Growth inhibition of human BT549 cells assessed as cell growth at 10 uM after 48 hrs by sulforhodamine B assay; assay type: functional; conditions: BT-549, 48 h, read-out: Activity
[1] = Growth inhibition of human Hs 578T cells assessed as cell growth at 10 uM after 48 hrs by sulforhodamine B assay; assay type: functional; conditions: read-out: Activity
UO-31 = test: Growth inhibition of human UO31 cells assessed as cell growth at 10 uM after 48 hrs by sulforhodamine B assay; assay type: functional; conditions: UO-31, 48 h, read-out: Activity
PC-3 = test: Growth inhibition of human PC3 cells assessed as cell growth at 10 uM after 48 hrs by sulforhodamine B assay; assay type: functional; conditions: PC-3, 48 h, read-out: Activity
SN12C = test: Growth inhibition of human SN12C cells assessed as cell growth at 10 uM after 48 hrs by sulforhodamine B assay; assay type: functional; conditions: read-out: Activity
HT-29 = test: Growth inhibition of human HT-29 cells after 48 hrs by sulforhodamine B assay; assay type: functional; conditions: HT-29, 48 h; for CC50: read-out: LC50 (the source's name)
[2] = Growth inhibition of human HCC2998 cells after 48 hrs by sulforhodamine B assay; assay type: functional; conditions: HCC 2998, 48 h; for CC50: read-out: LC50 (the source's name)
NCI-H23 = test: Growth inhibition of human NCI-H23 cells after 48 hrs by sulforhodamine B assay; assay type: functional; conditions: NCI-H23, 48 h
A549 = test: Growth inhibition of human A549/ATCC cells after 48 hrs by sulforhodamine B assay; assay type: functional; conditions: A549, 48 h
RPMI-8226 = test: Growth inhibition of human RPMI8226 cells after 48 hrs by sulforhodamine B assay; assay type: functional, cell-based; conditions: RPMI-8226, 48 h; for CC50: read-out: LC50 (the source's name)
K562 = test: Growth inhibition of human K562 cells after 48 hrs by sulforhodamine B assay; assay type: functional; conditions: K562, 48 h; for CC50: read-out: LC50 (the source's name)
RXF 393 = test: Growth inhibition of human RXF393 cells assessed as cell growth at 10 uM after 48 hrs by sulforhodamine B assay; assay type: functional; conditions: RXF 393, 48 h, read-out: Activity
ACHN = test: Growth inhibition of human ACHN cells assessed as cell growth at 10 uM after 48 hrs by sulforhodamine B assay; assay type: functional; conditions: read-out: Activity
786-0 = test: Growth inhibition of human 786-0 cells assessed as cell growth at 10 uM after 48 hrs by sulforhodamine B assay; assay type: functional; conditions: 786-0, 48 h, read-out: Activity
A498 = test: Growth inhibition of human A498 cells assessed as cell growth at 10 uM after 48 hrs by sulforhodamine B assay; assay type: functional; conditions: A498, 48 h, read-out: Activity
SK-OV-3 [3] = test: Growth inhibition of human SKOV3 cells assessed as cell growth at 10 uM after 48 hrs by sulforhodamine B assay; assay type: functional; conditions: SK-OV-3, 48 h, read-out: Activity
OVCAR-3 = test: Growth inhibition of human OVCAR3 cells assessed as cell growth at 10 uM after 48 hrs by sulforhodamine B assay; assay type: functional; conditions: OVCAR-3, 48 h, read-out: Activity
UACC-62 = test: Growth inhibition of human UACC62 cells assessed as cell growth at 10 uM after 48 hrs by sulforhodamine B assay; assay type: functional; conditions: UACC-62, 48 h, read-out: Activity
UACC-257 = test: Growth inhibition of human UACC257 cells assessed as cell growth at 10 uM after 48 hrs by sulforhodamine B assay; assay type: functional; conditions: UACC-257, 48 h, read-out: Activity
SK-MEL-5 [4] = test: Growth inhibition of human SK-MEL-5 cells assessed as cell growth at 10 uM after 48 hrs by sulforhodamine B assay; assay type: functional; conditions: SK-MEL-5, 48 h, read-out: Activity
SK-MEL-2 = test: Growth inhibition of human SK-MEL-2 cells assessed as cell growth at 10 uM after 48 hrs by sulforhodamine B assay; assay type: functional; conditions: SK-MEL-2, 48 h, read-out: Activity
SNB-19 = test: Growth inhibition of human SNB19 cells assessed as cell growth at 10 uM after 48 hrs by sulforhodamine B assay; assay type: functional; conditions: SNB-19, 48 h, read-out: Activity
HCT-116 = test: Growth inhibition of human HCT116 cells assessed as cell growth at 10 uM after 48 hrs by sulforhodamine B assay; assay type: functional; conditions: HCT-116, 48 h, read-out: Activity
MDA-MB-468 = test: Growth inhibition of human MDA-MB-468 cells after 48 hrs by sulforhodamine B assay; assay type: functional, cell-based; conditions: MDA-MB-468, 48 h; for CC50: read-out: LC50 (the source's name)
T47D = test: Growth inhibition of human T47D cells after 48 hrs by sulforhodamine B assay; assay type: functional; conditions: for CC50: read-out: LC50 (the source's name)
DU-145 = test: Growth inhibition of human DU145 cells after 48 hrs by sulforhodamine B assay; assay type: functional; conditions: DU-145, 48 h
TK-10 = test: Growth inhibition of human TK10 cells after 48 hrs by sulforhodamine B assay; assay type: functional; conditions: TK-10, 48 h; for CC50: read-out: LC50 (the source's name)
SK-OV-3 [5] = test: Growth inhibition of human SKOV3 cells after 48 hrs by sulforhodamine B assay; assay type: functional; conditions: SK-OV-3, 48 h; for CC50: read-out: LC50 (the source's name)
SK-MEL-5 [6] = test: Growth inhibition of human SK-MEL-5 cells after 48 hrs by sulforhodamine B assay; assay type: functional; conditions: SK-MEL-5, 48 h
SK-MEL-28 = test: Growth inhibition of human SK-MEL-28 cells after 48 hrs by sulforhodamine B assay; assay type: functional; conditions: SK-MEL-28, 48 h
SNB-75 = test: Growth inhibition of human SNB75 cells after 48 hrs by sulforhodamine B assay; assay type: functional; conditions: SNB-75, 48 h
U-251 = test: Growth inhibition of human U251 cells after 48 hrs by sulforhodamine B assay; assay type: functional; conditions: U-251, 48 h
SF-539 = test: Growth inhibition of human SF539 cells after 48 hrs by sulforhodamine B assay; assay type: functional; conditions: SF-539, 48 h
HL-60(TB) = test: Growth inhibition of human HL-60(TB) cells assessed as cell growth at 10 uM after 48 hrs by sulforhodamine B assay; assay type: functional; conditions: HL-60, 48 h, read-out: Activity

COc1cc(-c2nn(-c3cccc(NC(=O)Nc4ccc(Cl)c(C(F)(F)F)c4)c3)cc2-c2ccncc2)ccc1Cl
growth at 10 µM (BT-549): 7.16%
growth at 10 µM [1]: 2.21%
growth at 10 µM (UO-31): 11%
growth at 10 µM (PC-3): -19.1%
growth at 10 µM (SN12C): 12.6%
GI50 (HT-29): 1.19 µM
TGI (HT-29): 4.45 µM
CC50 (HT-29): 21.5 µM
GI50 [2]: 1.55 µM
TGI [2]: 7.3 µM
CC50 [2]: > 32.5 µM
GI50 (NCI-H23): 1.31 µM
LC50 (NCI-H23): > 32.5 µM
TGI (NCI-H23): 8.03 µM
GI50 (A549): 1.02 µM
LC50 (concentration killing 50% of starting cells) (A549): > 32.5 µM
TGI (A549): 16.7 µM
GI50 (RPMI-8226): 0.868 µM
IC50 (RPMI-8226): 0.87 µM
TGI (RPMI-8226): 3.25 µM
CC50 (RPMI-8226): > 32.5 µM
GI50 (K562): 1.21 µM
TGI (K562): > 32.5 µM
CC50 (K562): > 32.5 µM
growth at 10 µM (RXF 393): -27.8%
growth at 10 µM (ACHN): 9.33%
growth at 10 µM (786-0): 15.1%
growth at 10 µM (A498): -6.71%
growth at 10 µM (SK-OV-3 [3]): 0.43%
growth at 10 µM (OVCAR-3): -12.4%
growth at 10 µM (UACC-62): -43.8%
growth at 10 µM (UACC-257): -37.6%
growth at 10 µM (SK-MEL-5 [4]): -65.3%
growth at 10 µM (SK-MEL-2): -57.8%
growth at 10 µM (SNB-19): 26.4%
growth at 10 µM (HCT-116): 5.3%
GI50 (MDA-MB-468): 0.833 µM
IC50 (MDA-MB-468): 0.83 µM
TGI (MDA-MB-468): 4.42 µM
CC50 (MDA-MB-468): > 32.5 µM
GI50 (T47D): 1.23 µM
TGI (T47D): > 32.5 µM
CC50 (T47D): > 32.5 µM
GI50 (DU-145): 1.5 µM
LC50 (DU-145): > 32.5 µM
TGI (DU-145): > 32.5 µM
GI50 (TK-10): 1.52 µM
TGI (TK-10): 13.5 µM
CC50 (TK-10): > 32.5 µM
GI50 (SK-OV-3 [5]): 1.45 µM
TGI (SK-OV-3 [5]): 13 µM
CC50 (SK-OV-3 [5]): > 32.5 µM
GI50 (SK-MEL-5 [6]): 0.818 µM
LC50 (concentration killing 50% of cells) (SK-MEL-5 [6]): 10.4 µM
TGI (SK-MEL-5 [6]): 2.89 µM
GI50 (SK-MEL-28): 1.2 µM
LC50 (SK-MEL-28): 19.1 µM
TGI (SK-MEL-28): 5.01 µM
GI50 (SNB-75): 1.28 µM
LC50 (lethal concentration, 50% net cell kill) (SNB-75): > 32.5 µM
TGI (SNB-75): 10.3 µM
GI50 (U-251): 0.985 µM
LC50 (concentration killing 50% of cells) (U-251): 24.7 µM
TGI (U-251): 4.18 µM
GI50 (SF-539): 1.65 µM
LC50 (concentration killing 50% of cells) (SF-539): 17.5 µM
TGI (SF-539): 6.34 µM
growth at 10 µM (HL-60(TB)): -19.8%

O=C(Nc1cccc(-n2cc(-c3ccncc3)c(-c3ccc(Cl)c(O)c3)n2)c1)c1ccc(N2CCOCC2)c(C(F)(F)F)c1
growth at 10 µM (BT-549): 63.6%
growth at 10 µM [1]: 15.5%
growth at 10 µM (UO-31): 36.9%
growth at 10 µM (PC-3): 27.2%
growth at 10 µM (SN12C): 73.9%
GI50 (HT-29): 14.4 µM
TGI (HT-29): > 50 µM
CC50 (HT-29): > 50 µM
GI50 [2]: 5.66 µM
TGI [2]: > 50 µM
CC50 [2]: > 50 µM
GI50 (NCI-H23): 4.2 µM
LC50 (NCI-H23): > 50 µM
TGI (NCI-H23): 30.1 µM
GI50 (A549): 3.08 µM
LC50 (concentration killing 50% of starting cells) (A549): > 50 µM
TGI (A549): > 50 µM
GI50 (RPMI-8226): 1.4 µM
IC50 (RPMI-8226): 1.4 µM
TGI (RPMI-8226): 12.5 µM
CC50 (RPMI-8226): > 50 µM
GI50 (K562): 1.88 µM
TGI (K562): > 50 µM
CC50 (K562): > 50 µM
growth at 10 µM (RXF 393): -26%
growth at 10 µM (ACHN): 36.6%
growth at 10 µM (786-0): 59.6%
growth at 10 µM (A498): 101%
growth at 10 µM (SK-OV-3 [3]): 74.2%
growth at 10 µM (OVCAR-3): 56%
growth at 10 µM (UACC-62): 49.2%
growth at 10 µM (UACC-257): 38.9%
growth at 10 µM (SK-MEL-5 [4]): 50.8%
growth at 10 µM (SK-MEL-2): 17.6%
growth at 10 µM (SNB-19): 65.7%
growth at 10 µM (HCT-116): 29.6%
GI50 (MDA-MB-468): 7.04 µM
IC50 (MDA-MB-468): 7.04 µM
TGI (MDA-MB-468): 26.6 µM
CC50 (MDA-MB-468): > 50 µM
GI50 (T47D): 35.9 µM
TGI (T47D): > 50 µM
CC50 (T47D): > 50 µM
GI50 (DU-145): 4.2 µM
LC50 (DU-145): > 50 µM
TGI (DU-145): > 50 µM
GI50 (TK-10): 21.3 µM
TGI (TK-10): > 50 µM
CC50 (TK-10): > 50 µM
GI50 (SK-OV-3 [5]): 20 µM
TGI (SK-OV-3 [5]): > 50 µM
CC50 (SK-OV-3 [5]): > 50 µM
GI50 (SK-MEL-5 [6]): 2.47 µM
LC50 (concentration killing 50% of cells) (SK-MEL-5 [6]): 31.8 µM
TGI (SK-MEL-5 [6]): 10.2 µM
GI50 (SK-MEL-28): 1.5 µM
LC50 (SK-MEL-28): 42.9 µM
TGI (SK-MEL-28): 6.04 µM
GI50 (SNB-75): 1.3 µM
LC50 (lethal concentration, 50% net cell kill) (SNB-75): > 50 µM
TGI (SNB-75): > 50 µM
GI50 (U-251): 1.85 µM
LC50 (concentration killing 50% of cells) (U-251): > 50 µM
TGI (U-251): 24.9 µM
GI50 (SF-539): 1.37 µM
LC50 (concentration killing 50% of cells) (SF-539): > 50 µM
TGI (SF-539): 17.3 µM
growth at 10 µM (HL-60(TB)): 51.6%
